Patent US20190203240A1, “METHODS FOR THE PRODUCTION OF RHAMNOSYLATED FLAVONOIDS” (Universitaet Hamburg, priority 2016, published 2019)
Values joined by “and” are separate entries in the source; they are usually repeats but may differ in a detail not shown here. Identical values can stand only once.

Legend:
[1] = tested on: normal human epidermal keratinocytes (NHEK); experiment: Cytotoxicity on NHEK monolayer (MTT reduction assay and morphological observation); format: cell-based; settings: MTT; for Viability (%): single values, listed as Nar-5-Rha
Protocol: To determine the cytotoxicity of flavonoid-5-O-α-L-rhamnosides tests were performed versus their aglycon derivatives in cell monolayer cultures. For this purpose concentrations ranging from 1 μM to 250 μM were chosen. The viability of normal human epidermal keratinocytes (NHEK) was twice evaluated by a MTT reduction assay and morphological observation with a microscope. NHEK were grown at 37° C. and 5% CO2 aeration in Keratinocyte-SFM medium supplemented with epidermal growth factor (EGF) at 0.25 ng/mL, pituitary extract (PE) at 25 μg/mL and gentamycin (25 μg/mL) for 24 h and were used at the 3rd passage. For cytotoxicity testing, pre-incubated NHEK were given fresh culture medium containing a specific concentration of test compound and incubated for 24 h. After a medium change at same test concentration cells were incubated a further 24 h until viability was determined. Test results are given in Table B2 and illustrated in FIG. 10.

[2] = tested on: PGE2; experiment: Anti-inflammatory potential: secreted PGE2 in stimulated NHEK (ELISA); format: cell-based, human; settings: PMA stimulation, 100 μM
Protocol: NHEK were pre-incubated for 24 h with the test compounds. The medium was replaced with the NHEK culture medium containing the inflammatory inducers (PMA or Poly I:C) and incubated for another 24 hours. Positive and negative controls ran in parallel. At the endpoint the culture supernatants were quantified of secreted IL-8, PGE2 and TNF-α, by means of ELISA.

[3] = tested on: hydrogen peroxide (DHR) in NHEK cells; experiment: Protection against UV-induced H2O2 stress in NHEK (DHR probe, flow cytometry); format: cell-based, human; settings: 180 mJ/cm^2 UVB (2839 mJ/cm^2 UVA), 100 μM
Protocol: Pre-incubated NHEK were incubated with the test compound for 24 h. Then the specific fluorescence probe for the measurement of hydrogen peroxide (DHR) or lipid peroxides (C11-fluor) was added and incubated for 45 min. Irradiation occurred with in H2O2 determination UVB at 180 mJ/cm^2 (+UVA at 2839 mJ/cm^2) or UVB at 240 mJ/cm^2 (+UVA at 3538 mJ/cm^2) in lipid peroxide, respectively, using a SOL500 Sun Simulator lamp. After irradiation the cells were post-incubated for 30 min before flow-cytometry analysis.

[4] = tested on: fibronectin; experiment: Stimulation of fibronectin synthesis in NHDF (ELISA); format: cell-based, human; settings: 100 μM
Protocol: Tests were performed with normal human dermal fibroblast cultures at the 8th passage. Cells were grown in DMEM supplemented with glutamine at 2 mM, penicillin at 50 U/mL and streptomycin (50 μg/mL) and 10% of fetal calf serum (FCS) at 37° C. in a 5% CO2 atmosphere.
Fibroblasts were cultured for 24 hours before the cells were incubated with the test compounds for further 72 hours. After the incubation the culture supernatants were collected in order to measure the released quantities of procollagen I, VEGF, and fibronectin by means of ELISA. Reference test compounds were vitamin C (procollagen I), PMA (VEGF), and TGF-β (fibronectin).

[5] = tested on: HaCaT cells; experiment: Glucose uptake (2-NBDG) in HaCaT keratinocytes; format: cell-based; settings: +2NBDG 50 μM, 24 h
Protocol: HaCaT cells (5×10^4) were seeded in 96-well black plates and incubated for 24 h. Then, medium was removed and the cells cultivated in OptiMEM, labeled with 50 μM 2-NBDG (2-[N-(7-nitrobenz-2-oxa-1,3-diazol-4-yl) amino]-2-deoxy-D-glucose and treated with the test substances or the positive control, Rosiglitazone, for 24 h. Medium was removed and the wells were carefully washed with PBS and incubated in PBS (100 μl/well). Finally the fluorescence was measured using the Incucyte FLR software, the data were analyzed by the total green object integrated intensity (GCU×μm2×Well) of the imaging system IncuCyte HD (Essen BioScience). The fluorescence of Rosiglitazone is taken as 100% of glucose uptake, and the glucose uptake was calculated as (% Glucose uptake)=100(T−B)/(R−B), where T (treated) is the fluorescence of test substance-treated cells, B (Basal) is the fluorescence of 2-NBDG cells and […] is the fluorescence of cells treated with Rosiglitazone.

**Q.** With `C[C@@H]1O[C@@H](Oc2cc(O)cc3c2C(=O)CC(c2ccc(O)cc2)O3)[C@H](O)[C@H](O)[C@H]1O` (mixture of isomers) [NR1, Naringenin-5-O-α-L-rhamnoside] as the molecule, how does the “Viability (%) Mean” value ([1]; 1 μM) read?
**A.** 101%

**Q.** What about the “Viability (%)” value ([1]; 1 μM) of the same molecule?
**A.** 91% and 111%

**Q.** What about the “Viability (%) Mean” value ([1]; 2.5 μM) of the same molecule?
**A.** 93%

**Q.** And the “Viability (%)” value ([1]; 2.5 μM)?
**A.** 92% and 93%

**Q.** What about the “Viability (%) Mean” value ([1]; 5 μM) of the same molecule?
**A.** 86%

**Q.** And the “Viability (%)” value ([1]; 5 μM)?
**A.** 85% and 88%

**Q.** What about the “Viability (%) Mean” value ([1]; 10 μM) of the same molecule?
**A.** 97%

**Q.** What about the “Viability (%)” value ([1]; 10 μM) of the same molecule?
**A.** 94% and 100%

**Q.** What about the “Viability (%) Mean” value ([1]; 25 μM) of the same molecule?
**A.** 95%

**Q.** And the “Viability (%)” value ([1]; 25 μM)?
**A.** 92% and 98%

**Q.** What about the “Viability (%) Mean” value ([1]; 50 μM) of the same molecule?
**A.** 84%

**Q.** And the “Viability (%)” value ([1]; 50 μM)?
**A.** 78% and 91%

**Q.** And the “Viability (%) Mean” value ([1]; 100 μM)?
**A.** 86%

**Q.** What about the “Viability (%)” value ([1]; 100 μM) of the same molecule?
**A.** 82% and 90%

**Q.** And the “Viability (%) Mean” value ([1]; 250 μM)?
**A.** 83%

**Q.** What about the “Viability (%)” value ([1]; 250 μM) of the same molecule?
**A.** 79% and 87%

**Q.** And the “Cytokine [pg/mL] PGE2 Mean” value [2]?
**A.** 1271 pg/mL

**Q.** What about the “PGE2 % stim. control” value [2] of the same molecule?
**A.** 81%

**Q.** And the “Cytokine [pg/mL] PGE2” value ([2]; single values)?
**A.** 851 pg/mL and 1691 pg/mL

**Q.** And the “H2O2 % irradiated control” value [3]?
**A.** 136%

**Q.** What about the “H2O2 (AU) Mean” value [3] of the same molecule?
**A.** 2516.5 AU

**Q.** What about the “H2O2 Protection %” value [3] of the same molecule?
**A.** −44%

**Q.** And the “H2O2 (AU) (DHR GMFI)” value ([3]; single values)?
**A.** 2531 AU and 2502 AU

**Q.** What about the fibronectin synthesis increase [4] of the same molecule?
**A.** 20%

**Q.** And the “Fibronectin % Control” value ([4]; 72 h incubation)?
**A.** 120%

**Q.** What about the “Fibronectin % Stimulation” value ([4]; 72 h incubation) of the same molecule?
**A.** 20%

**Q.** What about the “Fibronectin (ng/ml), single replicates” value ([4]; 72 h incubation) of the same molecule?
**A.** 6833 ng/mL and 7820 ng/mL

**Q.** And the “Fibronectin Mean” value ([4]; 72 h incubation)?
**A.** 7326 ng/mL

**Q.** And the “% Glucose uptake (Rosiglitazone = 100%)” value ([5]; 25 μM)?
**A.** 87.7%

**Q.** What about the “Mean (fluorescence)” value ([5]; 25 μM) of the same molecule?
**A.** 768005

**Q.** What about the “Measure 1 (fluorescence)” value ([5]; 25 μM) of the same molecule?
**A.** 493970

**Q.** What about the “Measure 2 (fluorescence)” value ([5]; 25 μM) of the same molecule?
**A.** 1160754

**Q.** What about the “Measure 3 (fluorescence)” value ([5]; 25 μM) of the same molecule?
**A.** 649291

**Q.** And the RFU specific ([5]; 25 μM)?
**A.** 761691 RFU

**Q.** And the “% Glucose uptake (Rosiglitazone = 100%)” value ([5]; 50 μM)?
**A.** 29.6%

**Q.** What about the “Mean (fluorescence)” value ([5]; 50 μM) of the same molecule?
**A.** 263881

**Q.** What about the “Measure 1 (fluorescence)” value ([5]; 50 μM) of the same molecule?
**A.** 278134

**Q.** What about the “Measure 2 (fluorescence)” value ([5]; 50 μM) of the same molecule?
**A.** 256310

**Q.** What about the “Measure 3 (fluorescence)” value ([5]; 50 μM) of the same molecule?
**A.** 257198

**Q.** What about the RFU specific ([5]; 50 μM) of the same molecule?
**A.** 257567 RFU
